This note sets out measurements from patent US12459922B2 (Gilead Sciences, Inc., priority 2022, dated 2025).

The structures appear in SMILES notation.

This assay concerns endogenous cellular STAT1 (phosphorylated at Tyr701) in NCI-H1373 cells. Description: Phospho-STAT1 (Tyr701) LANCE Ultra TR-FRET Detection Assay. The class given is cell-based. The note with it: Homo sapiens, NCI-H1373, 48 h, phospho-STAT1 (Tyr701) induction, read-out: NH1373 pSTAT1 EC50.
The term EC50 denotes the concentration that produces a half-maximal response. As for `O=c1[nH]ncc(N[C@H](CCCn2ccc3cc(-c4cnc(OC(F)F)cn4)c(F)cc3c2=O)COC(F)F)c1C(F)(F)F` [Example 371, (R)-2-(5-(difluoromethoxy)-4-((6-oxo-5-(trifluoromethyl)-1,6-dihydropyridazin-4-yl)amino)pentyl)-6-(5-(difluoromethoxy)pyrazin-2-yl)-7-fluoroisoquinolin-1(2H)-one], the EC50 worked out at 6.78 nM. With `C[C@@H](CCCn1ccc2cc(-c3ncc(C(F)(F)F)c(N4CCS(=O)(=O)C4)n3)c(F)cc2c1=O)Nc1cn[nH]c(=O)c1C(F)(F)F` [Example 317, (S)-6-(4-(1,1-dioxidothiazolidin-3-yl)-5-(trifluoromethyl)pyrimidin-2-yl)-7-fluoro-2-(4-((6-oxo-5-(trifluoromethyl)-1,6-dihydropyridazin-4-yl)amino)pentyl)isoquinolin-1(2H)-one], the EC50 came out at 45.1 nM. Regarding `C[C@@H](CCCn1ccc2cc(-c3nc4cc(F)ccn4n3)c(F)cc2c1=O)Nc1cn[nH]c(=O)c1C(F)(F)F` [Example 335, (S)-7-fluoro-6-(7-fluoro-[1,2,4]triazolo[1,5-a]pyridin-2-yl)-2-(4-((6-oxo-5-(trifluoromethyl)-1,6-dihydropyridazin-4-yl)amino)pentyl)isoquinolin-1(2H)-one], the EC50 amounted to 5.57 nM.

Regarding `O=c1[nH]ncc(NC[C@H]2C[C@H](Cn3ccc4cc(-c5ncc(C(F)(F)F)cn5)c(F)c(F)c4c3=O)C2)c1C(F)(F)F` [Example 130, 7,8-difluoro-2-(((1R,3R)-3-(((6-oxo-5-(trifluoromethyl)-1,6-dihydropyridazin-4-yl)amino)methyl)cyclobutyl)methyl)-6-(5-(trifluoromethyl)pyrimidin-2-yl)isoquinolin-1(2H)-one], the EC50 came out at 1470 nM. Take `O=c1[nH]ncc(N2C[C@@H](O)C[C@H]2CCCn2ccc3cc(-c4ncc(C(F)(F)F)cn4)c(F)cc3c2=O)c1C(F)(F)F` [Example 138, 7-fluoro-2-(3-((2R,4S)-4-hydroxy-1-(6-oxo-5-(trifluoromethyl)-1,6-dihydropyridazin-4-yl)pyrrolidin-2-yl)propyl)-6-(5-(trifluoromethyl)pyrimidin-2-yl)isoquinolin-1(2H)-one]: the EC50 was determined as 55.5 nM. In the case of `[2H]C([2H])([2H])OC[C@@H](CCCn1ccc2cc(-c3ncc(C(F)F)cn3)c(F)cc2c1=O)Nc1cn[nH]c(=O)c1C(F)(F)F` [Example 428, 6-[5-(difluoromethyl)pyrimidin-2-yl]-7-fluoro-2-[(4R)-4-[[6-oxo-5-(trifluoromethyl)-1H-pyridazin-4-yl]amino]-5-(trideuteriomethoxy)pentyl]isoquinolin-1-one], the EC50 was 4.17 nM. Regarding `Nc1nc(-c2cc3ncn(C[C@@H]4CCC[C@H](Nc5cn[nH]c(=O)c5C(F)(F)F)C4)c(=O)c3cc2F)ncc1Cl` [Example 261, 7-(4-amino-5-chloropyrimidin-2-yl)-6-fluoro-3-(((1R,3S)-3-((6-oxo-5-(trifluoromethyl)-1,6-dihydropyridazin-4-yl)amino)cyclohexyl)methyl)quinazolin-4(3H)-one], the EC50 was found to be 6.1 nM. In the case of `O=c1[nH]ncc(N[C@H](CCCn2ccc3cc(-c4ncc(C(F)(F)F)cn4)c(F)cc3c2=O)COC(F)(F)F)c1C(F)(F)F` [Example 435, (R)-7-fluoro-2-(4-((6-oxo-5-(trifluoromethyl)-1,6-dihydropyridazin-4-yl)amino)-5-(trifluoromethoxy)pentyl)-6-(5-(trifluoromethyl)pyrimidin-2-yl)isoquinolin-1(2H)-one], the EC50 turned out to be 2.83 nM. In the case of `O=c1[nH]ncc(N[C@@H](CO)CCCn2ccc3cc(-c4ncc(C(F)F)cn4)c(F)cc3c2=O)c1C(F)(F)F` [Example 165], the EC50 was found to be 159 nM. Regarding `Cc1ccc(-c2cc3ccn(CCC[C@H](C)Nc4cn[nH]c(=O)c4C(F)(F)F)c(=O)c3cc2F)nc1C(F)(F)F` [Example 296, (S)-7-fluoro-6-(5-methyl-6-(trifluoromethyl)pyridin-2-yl)-2-(4-((6-oxo-5-(trifluoromethyl)-1,6-dihydropyridazin-4-yl)amino)pentyl)isoquinolin-1(2H)-one], the EC50 came out at 1460 nM. For `Nc1nc(-c2cc3ccn(C[C@@H]4CCC[C@H](Nc5cn[nH]c(=O)c5C(F)(F)F)C4)c(=O)c3c(F)c2F)cnc1C(F)(F)F` [Example 257, 6-(6-amino-5-(trifluoromethyl)pyrazin-2-yl)-7,8-difluoro-2-(((1R,3S)-3-((6-oxo-5-(trifluoromethyl)-1,6-dihydropyridazin-4-yl)amino)cyclohexyl)methyl)isoquinolin-1(2H)-one], the EC50 is 25.1 nM. For the molecule `O=c1[nH]ncc(N[C@@H](CO)CCCn2ccc3cc(-c4ncc(Cl)cn4)c(F)cc3c2=O)c1C(F)(F)F` [Example 166, 6-(5-chloropyrimidin-2-yl)-7-fluoro-2-[(4R)-5-hydroxy-4-[[6-oxo-5-(trifluoromethyl)-1H-pyridazin-4-yl]amino]pentyl]isoquinolin-1-one], the EC50 came to 128 nM. Turning to `O=c1[nH]ncc(N[C@H]2CCC[C@@H](Cn3ccc4cc(-c5cc6c(cn5)C(F)(F)CC6)c(F)cc4c3=O)C2)c1C(F)(F)F` [Example 496, 6-(7,7-difluoro-5,6-dihydrocyclopenta[c]pyridin-3-yl)-7-fluoro-2-[[(1R,3S)-3-[[6-oxo-5-(trifluoromethyl)-1H-pyridazin-4-yl]amino]cyclohexyl]methyl]isoquinolin-1-one], the EC50 came to 5.5 nM.

As for `COc1ncc(-c2cc3ccn(CCC[C@H](COC(F)F)Nc4cn[nH]c(=O)c4C(F)(F)F)c(=O)c3cc2F)nc1N` [Example 415, (R)-6-(6-amino-5-methoxypyrazin-2-yl)-2-(5-(difluoromethoxy)-4-((6-oxo-5-(trifluoromethyl)-1,6-dihydropyridazin-4-yl)amino)pentyl)-7-fluoroisoquinolin-1(2H)-one], the EC50 was found to be 2.49 nM.

On to `C[C@@H](CCCn1cnc2cc(-c3ncc(C(F)(F)F)c(N4CC(C)(O)C4)n3)c(F)cc2c1=O)Nc1cn[nH]c(=O)c1C(F)(F)F` [Example 190, (S)-6-fluoro-7-(4-(3-hydroxy-3-methylazetidin-1-yl)-5-(trifluoromethyl)pyrimidin-2-yl)-3-(4-((6-oxo-5-(trifluoromethyl)-1,6-dihydropyridazin-4-yl)amino)pentyl)quinazolin-4(3H)-one], for which the half-maximal effective concentration (EC50) turned out to be 29.9 nM. Regarding `C[C@@H](CCCn1ccc2cc(-c3ncc4c(n3)CCC4)c(F)cc2c1=O)Nc1cn[nH]c(=O)c1C(F)(F)F` [Example 94, (S)-6-(6,7-dihydro-5H-cyclopenta[d]pyrimidin-2-yl)-7-fluoro-2-(4-((6-oxo-5-(trifluoromethyl)-1,6-dihydropyridazin-4-yl)amino)pentyl)isoquinolin-1(2H)-one], the EC50 was determined as 22.8 nM.

For the molecule `Nc1nc(-c2cc3ccn(CCC[C@H](COC(F)F)Nc4cn[nH]c(=O)c4C(F)(F)F)c(=O)c3c(F)c2F)ncc1C(F)F` [Example 387, (R)-6-(4-amino-5-(difluoromethyl)pyrimidin-2-yl)-2-(5-(difluoromethoxy)-4-((6-oxo-5-(trifluoromethyl)-1,6-dihydropyridazin-4-yl)amino)pentyl)-7,8-difluoroisoquinolin-1(2H)-one], the EC50 stood at 10.4 nM.

Regarding `COc1cnc(-c2cc3ccn(CCC[C@H](C)Nc4cn[nH]c(=O)c4C(F)(F)F)c(=O)c3cc2F)nc1NCC(F)F` [Example 158, 6-[4-(2,2-difluoroethylamino)-5-methoxy-pyrimidin-2-yl]-7-fluoro-2-[(4S)-4-[[6-oxo-5-(trifluoromethyl)-1H-pyridazin-4-yl]amino]pentyl]isoquinolin-1-one], the EC50 was 109 nM. To `O=c1[nH]ncc(O[C@H]2CCC[C@@H](Cn3ccc4cc(-c5ncc(C(F)(F)F)cn5)c(F)cc4c3=O)C2)c1C(F)(F)F` [Example 454, 7-fluoro-2-(((1R,3S)-3-((6-oxo-5-(trifluoromethyl)-1,6-dihydropyridazin-4-yl)oxy)cyclohexyl)methyl)-6-(5-(trifluoromethyl)pyrimidin-2-yl)isoquinolin-1(2H)-one] belongs 7.48 nM; to `C[C@@H](CCCn1cnc2cc(-c3ncc(S(C)(=O)=O)cn3)c(F)cc2c1=O)Nc1cn[nH]c(=O)c1C(F)(F)F` [Example 126, (S)-6-fluoro-7-(5-(methylsulfonyl)pyrimidin-2-yl)-3-(4-((6-oxo-5-(trifluoromethyl)-1,6-dihydropyridazin-4-yl)amino)pentyl)quinazolin-4(3H)-one], 1290 nM; to `N#C[C@@H](CCCn1ccc2cc(-c3ncc(C(F)(F)F)cn3)c(F)cc2c1=O)Nc1cn[nH]c(=O)c1C(F)(F)F` [Example 162, (2R)-5-[7-fluoro-1-oxo-6-[5-(trifluoromethyl)pyrimidin-2-yl]-2-isoquinolyl]-2-[[6-oxo-5-(trifluoromethyl)-1H-pyridazin-4-yl]amino]pentanenitrile], 662 nM. `O=c1[nH]ncc(N[C@H]2CCC[C@@H](Cn3cnc4cc(-c5ncc(C(F)(F)F)c(Br)n5)c(F)cc4c3=O)C2)c1C(F)(F)F` [Example 458, 7-(4-bromo-5-(trifluoromethyl)pyrimidin-2-yl)-6-fluoro-3-(((1R,3S)-3-((6-oxo-5-(trifluoromethyl)-1,6-dihydropyridazin-4-yl)amino)cyclohexyl)methyl)quinazolin-4(3H)-one]: the EC50 was 2940 nM. With `[2H]C([2H])([2H])Oc1cnc(-c2cc3ccn(CCC[C@H](C)Nc4cn[nH]c(=O)c4C(F)(F)F)c(=O)c3cc2F)nc1N` [Example 196, 6-[4-amino-5-(trideuteriomethoxy)pyrimidin-2-yl]-7-fluoro-2-[(4S)-4-[[6-oxo-5-(trifluoromethyl)-1H-pyridazin-4-yl]amino]pentyl]isoquinolin-1-one], the EC50 was determined as 6.13 nM. In the case of `O=c1[nH]ncc(N[C@H](CCCn2cnc3cc(C4=CCCCO4)c(F)cc3c2=O)COC(F)F)c1C(F)(F)F` [Example 398, (R)-3-(5-(difluoromethoxy)-4-((6-oxo-5-(trifluoromethyl)-1,6-dihydropyridazin-4-yl)amino)pentyl)-7-(3,4-dihydro-2H-pyran-6-yl)-6-fluoroquinazolin-4(3H)-one], the EC50 was 424 nM.
